Measured values reported in patent publication US6440417B1, “Antibodies to argatroban derivatives and their use in therapeutic and diagnostic treatments” (ConjuChem, Inc., priority 1998, dated 2002).

Columns and labels:
plasma proteins = experiment: Western blot of plasma proteins derivatized in vitro with argatroban derivatives; conditions: human and rat whole blood, 100 μM, 30 minutes; bands from less than 39.5 kDa to greater than 193 kDa
Protocol: (§1) Whole blood samples were treated with argatroban derivatives to yield plasma proteins and red blood cells derivatized with argatroban. Fresh citrated human, rabbit (New Zealand) and rat (Sprague Dawley) whole blood samples were incubated with 100 μM (final concentration) Argatroban-C6-NHS, Argatroban-C16-Maleimide or DMSO, for 30 minutes at room temperature under gentle agitation. After quenching the reaction with 1 mM lysine or cysteine, the whole blood was centrifuged 10 min at 2500 rpm. Labelled plasma were recovered and stored at −20° C. until use. Labelled red blood cells (RBCs) were washed three times in PBS (5 min at 2500 rpm).
Labeled plasma were diluted 1/10 in water. Five μl of diluted plasma (·30 μg protein) were mixed with electrophoresis buffer and separated by SDS-PAGE using an 8% polyacrylamide gel, under non-reducing conditions. Plasma proteins were then transferred onto nitrocellulose sheet with a semi-dry transfer apparatus. Efficacy of transfer was checked by reversible staining with 1% Ponceau Red. The blot was saturated with tris-buffered saline (TBS) containing 5% gelatin and 0.1% Tween 20, for 2H at 37° C. to minimize non-specific binding. After three washes with TBS-1 % Tween 20 (TBS-T), the blot was incubated with rabbit anti-argatroban polyclonal serum from diluted 1/20,000 in TBS containing 1% gelatin and 0.1% Tween 20 (TBS-GT), for 1H30 at RT. […]

red blood cells = experiment: Flow cytometry of red blood cells derivatized in vitro with argatroban derivatives; type: cell-based, human, rabbit, rat; conditions: RBCs from whole blood incubated with 100 μM derivative, each sample
Protocol: as §1
After the last centrifugation, a 10% suspension of labelled red blood cells (RBCS) was made in PBS. Five μl of the suspension was mixed with rabbit anti-argatroban polyclonal sera from Example 4 diluted 1/500 in PBS-1% BSA and incubated at room temperature for 1 hour. After three washes in PBS, the RBCs were incubated with 50 μl of FITC-labeled goat anti-rabbit Ig (BioAtlantic, Nantes) diluted 1/50 in PBS-1% BSA for 1 hour in the dark. After three washes, the RBCs were resuspended in 0.5 ml PBS and fluorescence was detected by flow cytofluorometer (Becton Dickinson).

rat plasma proteins = experiment: Western blot of plasma from rats dosed in vivo; conditions: intravenous, 5 minutes and 24 hours after dosing
Protocol: Fifteen Sprague-Dawley rats weighing 250-300 grams were randomized for treatment with either argatroban and argatroban derivative. Rats treated with argatroban received dosages of either 3 or 10 mg/kg (n=6 and respectively) administered intravenously. […] A control group of rats was treated with intravenous injection of DMSO (0.2 ml/kg, n=3). The study was divided into two groups. Plasma samples were obtained from group 1 rats at time periods of 5 min, 15 min, and 24 hrs after injection. Plasma samples were obtained from group 2 rats at 1 hr, 3 hr and 24 hr following injection. […] The collected plasma samples from these rats were frozen for subsequent evaluation of the extent of conjugation to plasma proteins using ELISA and western blot analysis.
Plasma samples obtained from the rats were diluted 1:50 in PBS and then further diluted 1:1 with 2× Laemmli non-reducing buffer (Novex). The samples were boiled for 5 min. after which 25 ul of each sample were loaded per well of 8% acrylamide SDS-PAGE precast gel (10 lanes/1 mm gel, Novex). Samples were run in replicates for staining with Coomassie blue and for transfer to nitrocellulose.
Gels were run at a constant voltage of 120 V until the dye fronts reached the bottom of gels. […]

| Structure (SMILES) | protein bands identified in derivatized plasma samples (plasma proteins) | mean fluorescence signal relative to argatroban-maleimide derivatized cells (red blood cells) | plasma protein labelling / association with anti-argatroban antisera (rat plasma proteins) |
| --- | --- | --- | --- |
| CC1CNc2c(cccc2S(=O)(=O)N[C@@H](CCCN=C(N)N)C(=O)N2CC[C@@H](C)C[C@@H]2C(=O)NCCCCCC(=O)ON2C(=O)CCC2=O)C1.Cl.Cl (stereo partly drawn) [argatroban-NHS] | Numerous protein bands | 3 to 7 times |  |
| CC1CNc2c(cccc2S(=O)(=O)N[C@@H](CCCNC(=N)N)C(=O)N2CC[C@@H](C)C[C@@H]2C(=O)O)C1 (stereo partly drawn) [argatroban] |  |  | minimal protein association |
